Experimental data published in PMC10794144, “A novel antibiotic class targeting the lipopolysaccharide transporter” (Nature, 2024).
In brackets after ≈: the same amount, converted by molar mass. Several values for one entry are separate records, joined by “and”; a condition that tells them apart may be missing. Equal values may be shown once. Read-outs that look alike come from different tables or passages of the source.

Columns and labels:
[1] = system: S. aureus ATCC 29213; assay: microbe, parasite or virus in culture
Experimental: (§1) MIC determinations were performed using the broth microdilution method and in line with CLSI guidelines M07 and M100 (refs. [37],[38]). Bacterial inocula were prepared by diluting a 0.5 McFarland suspension in CAMHB or lysogeny broth (LB) specifically for A. baylyi isolates. […] MIC values of all of the tested antibiotics were read as the lowest compound concentration inhibiting bacterial growth by naked eye or beyond which the OD600 ceased to decrease.

[2] = system: P. aeruginosa ATCC 27853; assay: microbe, parasite or virus in culture
Experimental: as §1

[3] = system: HEK293 cells; assay: Cell-viability assay (CellTiterGlo); format: cell-based; conditions: Homo sapiens, 24 h, 37 °C, 3.125–100 μM, n = 2
Experimental: Compounds were prepared in serial dilutions (3.125–100 μM in 1% DMSO) and transferred to 384-well plates together with a positive (Staurosporine) and a negative (no compound) control. In total, 25 μl of HEK293 cells (ATCC; verified by short tandem repeat PCR and mycoplasma negative) (50,000 cells per ml) were added in either low-serum-containing (0.5% fetal bovine serum (FBS)) or high-serum-containing (12.5% FBS, 1% BSA) medium (Dulbecco’s modified Eagle medium (DMEM), glucose, L-glutamine). The plates were incubated for 24 h at 37 °C and a mixture of CellTiterGlo and DMEM was added to the plates. After incubation at room temperature, the luminescence signal was read using a BioTeK reader and a calculated IC50 was derived from the data.

[4] = Micronucleus test (MNT)
[5] = molecular target: CYP3A4 (Homo sapiens, UniProt P08684); assay: CYP inhibition; format: in vitro ADME
CYP3A4, sequence (P08684 whole entry): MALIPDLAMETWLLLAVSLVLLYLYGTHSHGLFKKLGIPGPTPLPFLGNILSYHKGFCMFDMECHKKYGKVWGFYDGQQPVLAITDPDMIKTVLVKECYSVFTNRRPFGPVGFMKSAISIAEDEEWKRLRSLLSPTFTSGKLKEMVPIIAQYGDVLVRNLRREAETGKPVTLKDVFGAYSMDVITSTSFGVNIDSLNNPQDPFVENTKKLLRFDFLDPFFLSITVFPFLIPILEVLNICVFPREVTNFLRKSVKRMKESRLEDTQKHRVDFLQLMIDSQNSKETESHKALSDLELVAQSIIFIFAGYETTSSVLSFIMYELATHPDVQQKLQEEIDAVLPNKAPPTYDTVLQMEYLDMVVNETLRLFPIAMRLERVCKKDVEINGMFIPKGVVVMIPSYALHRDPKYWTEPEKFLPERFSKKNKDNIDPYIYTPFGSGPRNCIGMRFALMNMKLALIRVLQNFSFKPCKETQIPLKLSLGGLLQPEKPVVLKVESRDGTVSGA

[6] = molecular target: CYP2C9 (Homo sapiens, UniProt P11712); assay: CYP inhibition; format: in vitro ADME
CYP2C9, sequence (P11712 whole entry): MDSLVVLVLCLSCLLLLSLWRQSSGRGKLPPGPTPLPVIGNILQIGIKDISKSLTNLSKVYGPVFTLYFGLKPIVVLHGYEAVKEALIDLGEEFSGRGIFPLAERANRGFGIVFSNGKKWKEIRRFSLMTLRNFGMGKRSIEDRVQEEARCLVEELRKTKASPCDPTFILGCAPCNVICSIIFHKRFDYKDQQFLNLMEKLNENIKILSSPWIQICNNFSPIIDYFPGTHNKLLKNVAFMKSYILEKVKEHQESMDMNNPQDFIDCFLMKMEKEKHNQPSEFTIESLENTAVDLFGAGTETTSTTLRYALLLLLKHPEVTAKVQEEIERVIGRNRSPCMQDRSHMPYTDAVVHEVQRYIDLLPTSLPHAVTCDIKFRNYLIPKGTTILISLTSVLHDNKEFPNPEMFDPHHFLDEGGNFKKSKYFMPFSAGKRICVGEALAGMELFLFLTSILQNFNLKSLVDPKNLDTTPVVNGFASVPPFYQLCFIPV

[7] = GSH adduct; format: in vitro ADME
[8] = Fraction unbound in mouse plasma; format: in vitro ADME
[9] = Mouse pharmacokinetics study, i.v. bolus; format: in vivo; conditions: male CD1 mice, 1 mg/kg IV
Experimental: Three male CD1 mice were administered with compound formulation (0.5 mg ml^−1 in 0.9% aqueous sodium chloride solution) as an intravenous bolus dose of 1 mg per kg. Blood was sampled at 0.08, 0.25, 0.5, 1, 2, 4, 7 and 24 h after administration and the blood collecting tubes were centrifuged for 5 min at 5,200g at room temperature to isolate the plasma supernatant. The concentrations of compound in the plasma were analysed using a liquid chromatography–mass spectrometry method with a calibration range of 5–10,000 ng ml^−1. The pharmacokinetic parameters were derived from the individual concentration data and were estimated by non-compartmental analysis.

[10] = Rat plasma precipitation assay
Experimental: Whole blood was obtained from WISTAR rats and collected in 1.2 ml heparin tubes for the preparation of heparin plasma. The tubes were then centrifuged for 5 min at 5,200g at room temperature to isolate the plasma supernatant. Test compounds were received as powder and solubilized at various concentrations in 0.9% aqueous sodium chloride solution and adjusted for pH with phosphate-buffered saline (PBS). The assay was conducted in 384-well plates. Rat plasma (10 µl) was added to 10 µl of the various compound solutions. A total of 10 µl of vehicle (0.9% aqueous sodium chloride solution, PBS) added to the plasma was used as a negative control. The absorption was measured at 362 nm. Raw data were obtained as absorbance data. The difference between the absorbance of the sample and the mean absorbance of the vehicle was calculated. The minimum effect concentration was defined as the lowest concentration giving an absorbance difference of OD362 ≥ 0.05.

[11] = molecular target: T1, Abl kinase (Homo sapiens, UniProt P00519); assay: Off-target screening (CEREP); format: biochemical; conditions: read-out: percent inhibition
T1 construct: purchased Eurofins CEREP SA
T1 sequence (P00519 whole entry): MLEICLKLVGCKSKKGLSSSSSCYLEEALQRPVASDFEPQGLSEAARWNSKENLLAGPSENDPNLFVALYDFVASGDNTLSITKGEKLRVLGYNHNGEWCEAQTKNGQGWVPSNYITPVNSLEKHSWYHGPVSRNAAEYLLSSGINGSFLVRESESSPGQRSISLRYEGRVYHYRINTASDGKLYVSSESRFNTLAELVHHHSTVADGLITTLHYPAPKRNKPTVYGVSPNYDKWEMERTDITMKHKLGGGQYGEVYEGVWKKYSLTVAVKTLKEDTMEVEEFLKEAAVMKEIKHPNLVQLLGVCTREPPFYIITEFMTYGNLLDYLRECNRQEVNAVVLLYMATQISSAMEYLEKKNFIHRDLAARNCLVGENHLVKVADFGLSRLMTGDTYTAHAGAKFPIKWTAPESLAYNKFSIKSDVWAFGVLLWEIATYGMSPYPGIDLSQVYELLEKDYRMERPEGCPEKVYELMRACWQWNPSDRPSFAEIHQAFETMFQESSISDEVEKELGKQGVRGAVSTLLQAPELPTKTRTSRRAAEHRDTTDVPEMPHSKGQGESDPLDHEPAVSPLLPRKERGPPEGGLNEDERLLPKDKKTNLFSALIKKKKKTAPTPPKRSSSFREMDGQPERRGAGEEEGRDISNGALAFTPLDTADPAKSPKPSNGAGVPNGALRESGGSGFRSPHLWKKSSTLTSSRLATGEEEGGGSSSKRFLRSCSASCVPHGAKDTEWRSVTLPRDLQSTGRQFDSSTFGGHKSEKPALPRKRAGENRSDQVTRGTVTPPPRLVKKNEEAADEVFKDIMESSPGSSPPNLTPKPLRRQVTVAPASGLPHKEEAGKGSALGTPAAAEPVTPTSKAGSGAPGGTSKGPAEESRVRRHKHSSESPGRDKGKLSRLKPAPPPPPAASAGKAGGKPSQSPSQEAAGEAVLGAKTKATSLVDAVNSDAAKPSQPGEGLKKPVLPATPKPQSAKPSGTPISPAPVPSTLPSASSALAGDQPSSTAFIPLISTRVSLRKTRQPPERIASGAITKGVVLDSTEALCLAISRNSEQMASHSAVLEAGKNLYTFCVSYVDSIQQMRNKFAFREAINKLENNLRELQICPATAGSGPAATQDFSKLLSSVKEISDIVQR
Experimental: (§2) Supplementary Table 1 │ Off-target activity screening f or MCP compou nds […]
(§3) The assays given in the table above were conducted at Eurofins CEREP S A (Celle-Lévescault, France) and were run as single point measurements in duplicates in the presence of 10 µ M of the test compound and reported as percent inhibition of the radioligand signal or control enzymatic activity. n.d., not

[12] = molecular target: T2, Angiotensin converting enzyme (Homo sapiens, UniProt P12821); assay: Off-target screening (CEREP); format: biochemical; conditions: read-out: percent inhibition
T2 construct: purchased Eurofins CEREP SA
T2 sequence (P12821 30-1306): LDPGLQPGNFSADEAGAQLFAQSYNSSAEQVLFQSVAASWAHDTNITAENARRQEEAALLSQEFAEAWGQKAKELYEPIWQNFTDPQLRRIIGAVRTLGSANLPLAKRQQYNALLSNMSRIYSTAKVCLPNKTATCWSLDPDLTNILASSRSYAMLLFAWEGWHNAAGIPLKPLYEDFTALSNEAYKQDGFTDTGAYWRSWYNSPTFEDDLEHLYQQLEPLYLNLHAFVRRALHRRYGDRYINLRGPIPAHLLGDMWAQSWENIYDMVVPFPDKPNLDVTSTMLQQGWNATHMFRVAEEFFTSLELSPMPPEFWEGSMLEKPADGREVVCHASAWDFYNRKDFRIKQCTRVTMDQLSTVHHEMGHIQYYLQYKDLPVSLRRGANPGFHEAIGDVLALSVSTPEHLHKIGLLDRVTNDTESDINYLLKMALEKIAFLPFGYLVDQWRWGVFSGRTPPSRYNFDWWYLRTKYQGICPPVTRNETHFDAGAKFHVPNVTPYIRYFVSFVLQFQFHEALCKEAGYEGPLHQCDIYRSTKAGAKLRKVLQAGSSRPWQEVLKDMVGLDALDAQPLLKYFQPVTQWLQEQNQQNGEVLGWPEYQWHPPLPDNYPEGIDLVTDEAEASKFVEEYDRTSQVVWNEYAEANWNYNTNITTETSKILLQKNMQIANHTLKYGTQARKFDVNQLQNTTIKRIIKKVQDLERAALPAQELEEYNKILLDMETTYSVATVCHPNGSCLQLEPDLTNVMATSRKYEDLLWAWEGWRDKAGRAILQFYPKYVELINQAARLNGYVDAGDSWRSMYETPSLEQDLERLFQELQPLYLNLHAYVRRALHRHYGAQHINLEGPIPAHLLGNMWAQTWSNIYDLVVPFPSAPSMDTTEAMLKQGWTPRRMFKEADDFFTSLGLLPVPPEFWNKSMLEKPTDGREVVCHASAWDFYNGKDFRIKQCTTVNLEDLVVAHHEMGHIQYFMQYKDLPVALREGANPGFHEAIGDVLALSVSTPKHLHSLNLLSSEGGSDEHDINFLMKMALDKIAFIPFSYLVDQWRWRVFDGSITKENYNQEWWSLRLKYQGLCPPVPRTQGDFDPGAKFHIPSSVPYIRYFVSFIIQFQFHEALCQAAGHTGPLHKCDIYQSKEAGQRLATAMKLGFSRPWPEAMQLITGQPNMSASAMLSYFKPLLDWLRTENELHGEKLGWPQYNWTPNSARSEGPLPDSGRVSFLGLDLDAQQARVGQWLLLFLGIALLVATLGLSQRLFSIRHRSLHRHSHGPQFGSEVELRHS
Experimental: as §2, §3

[13] = molecular target: T3, CDK2 (Homo sapiens, UniProt P24941); assay: Off-target screening (CEREP); format: biochemical; conditions: read-out: percent inhibition
T3 construct: purchased Eurofins CEREP SA
Experimental: as §2, §3

[14] = system: GSK-3A (second line so named); assay: Off-target screening (CEREP); format: biochemical, human; conditions: 10 µM, duplicates
Experimental: as §2, §3

[15] = system: C. albicans ATCC 90028; conditions: 100%

Which results are given for `CN1C(=O)[C@H](CCCCN)NC(=O)[C@H](CCCN)NCc2cccnc2Sc2c(Cl)ccc(Cl)c2CNC(=O)[C@@H]1Cc1c[nH]c2ccccc12` [RO7075573]?
MIC ([1]; Staphylococcus aureus, ATCC29213): > 64 µg/mL; MIC 100% ([1]; Study LGC281440): >64 µg/mL; MIC 100% ([1]; Study LGC282160): >64 µg/mL; MIC 100% ([1]; Study LGC284879): >64 µg/mL; MIC 100% ([1]; Study LGC285582): >64 µg/mL; MIC 100% ([1]; Study LGC286210): 64 µg/mL (≈ 86.5 µM); MIC 100% ([1]; Study LGC293598): >64 µg/mL; MIC 100% ([1]; Study LGC294355): >64 µg/mL; MIC 100% ([1]; Study LGC295147): 64 µg/mL (≈ 86.5 µM); MIC 100% ([1]; Study LGC296813): >64 µg/mL; MIC 100% ([1]; Study LGC299544): 64 µg/mL (≈ 86.5 µM); MIC 100% ([1]; Study LGC301026): >64 µg/mL; MIC 100% ([1]; Study LGC308175): >64 µg/mL; MIC 100% ([1]; Study ROC010): 32 µg/mL (≈ 43.3 µM); MIC 100% ([1]; Study ROC012): 32 µg/mL (≈ 43.3 µM); MIC ([2]; Pseudomonas aeruginosa, ATCC27853): > 64 µg/mL; MIC 100% ([2]; Study LGC281440): 64 µg/mL (≈ 86.5 µM); MIC 100% ([2]; Study LGC282160): >64 µg/mL; MIC 100% ([2]; Study LGC284879): >64 µg/mL; MIC 100% ([2]; Study LGC285582): >64 µg/mL; MIC 100% ([2]; Study LGC286210): 64 µg/mL (≈ 86.5 µM); MIC 100% ([2]; Study LGC293598): >64 µg/mL; MIC 100% ([2]; Study LGC294355): >64 µg/mL; MIC 100% ([2]; Study LGC295147): 64 µg/mL (≈ 86.5 µM); MIC 100% ([2]; Study LGC296813): 64 µg/mL (≈ 86.5 µM); MIC 100% ([2]; Study LGC299544): >64 µg/mL; MIC 100% ([2]; Study LGC301026): >64 µg/mL; MIC 100% ([2]; Study LGC308175): >64 µg/mL; MIC 100% ([2]; Study ROC010): >64 µg/mL; MIC 100% ([2]; Study ROC012): >64 µg/mL; IC50 [3]: > 100 µM; MNT [4]: Negative; CYP inh. (3A4) [5]: 16 µM; CYP inh. (2C9) [6]: > 50 µM; GSH adduct [7]: Clean; fu (m), fraction unbound in mouse plasma [8]: 17%; Vss ([9]; n = 3): 0.3 L/kg; t1/2, terminal plasma half-life ([9]; n = 3): 2 h; Cl ([9]; n = 3, LC-MS, non-compartmental): 5.7 mL/min/kg; Threshold concentration for precipitation ([10]; Wistar rat heparin plasma 1:1 with compound in saline/PBS, absorbance difference OD362 ≥ 0.05, n = 1): 0.038 mg/mL and 0.0385 mg/mL; Threshold concentration causing precipitation ([10]; rat plasma): 52 µM; inhibition at 10 µM [11]: -85%; inhibition at 10 µM [12]: -7%; inhibition at 10 µM [13]: -5%; percent inhibition [14]: 10%; MIC 100% ([15]; Study LGC281440): 64 µg/mL (≈ 86.5 µM); MIC 100% ([15]; Study LGC282160): >64 µg/mL; MIC 100% ([15]; Study LGC284879): >64 µg/mL; MIC 100% ([15]; Study LGC285582): >64 µg/mL; MIC 100% ([15]; Study LGC286210): >64 µg/mL; MIC 100% ([15]; Study LGC293598): >64 µg/mL; MIC 100% ([15]; Study LGC294355): >64 µg/mL; MIC 100% ([15]; Study LGC295147): >64 µg/mL; MIC 100% ([15]; Study LGC296813): >64 µg/mL; MIC 100% ([15]; Study LGC299544): >64 µg/mL; MIC 100% ([15]; Study LGC301026): >64 µg/mL; MIC 100% ([15]; Study LGC308175): >64 µg/mL; MIC 100% ([15]; Study ROC010): >64 µg/mL; MIC 100% ([15]; Study ROC012): >64 µg/mL
